# Measurements from ChEMBL document CHEMBL3856231 (J Med Chem, 2016).
# The source made the active and inactive calls. The calls are words filed in the database; no cut-off is given here.
# What was measured:
# [1] = Oral bioavailability in CD-1 mouse at 10 mg/kg by LC/MS/MS analysis; type: ADME, organism-based; conditions: in vivo
# [2] = Clearance in Sprague-Dawley rat at 1 mg/kg, iv by LC/MS/MS analysis; type: ADME, organism-based; conditions: in vivo
# [3] = Tmax in CD-1 mouse at 10 mg/kg, po by LC/MS/MS analysis; type: ADME, organism-based; conditions: in vivo
# [4] = Drug level in plasma of FAK expressing human CWR22 cells xenografted Nu/Nu mouse at 55 mg/kg, po administered as single dose measured at 12 hrs by LC-MS/MS analysis; type: ADME, organism-based
# [5] = AUC (0 to 48 hrs) in Sprague-Dawley rat brain at 30 mg/kg, po by LC/MS/MS analysis; type: ADME, organism-based; parameters: dose 30 mg/kg, time < 48 hr, route oral
# Cytochrome P450 2D6 = Cytochrome P450 2D6 (Homo sapiens, UniProt P10635); test: Inhibition of CYP2D6 in human liver microsomes using dextromethorphan as substrate in presence of NADPH by LC/MS/MS analysis; type: ADME
# [6] = Oral bioavailability in Sprague-Dawley rat at 5 mg/kg by LC/MS/MS analysis; type: ADME, organism-based; conditions: in vivo
# [7] = Drug level in plasma of NPM-ALK expressing human SUP-M2 cells xenografted mouse at 30 mg/kg, po administered as single dose measured at 6 hrs by LC-MS/MS analysis; type: ADME, organism-based
# [8] = Drug level in tumor of NPM-ALK expressing human SUP-M2 cells xenografted mouse at 30 mg/kg, po administered as single dose measured at 6 hrs by LC-MS/MS analysis; type: ADME, organism-based, Neoplasm; conditions: read-out: Drug uptake
# SUP-M2 [9] = test: Antitumor activity against human SUP-M2 cells expressing NPM-ALK xenografted in SCID-Beige mouse assessed as tumor regression at 30 mg/kg, po qd administered for 12 days measured during compound dosing; type: functional, organism-based
# [10] = target: ALK tyrosine kinase receptor (Homo sapiens, UniProt Q9UM73); conditions: 1 uM
# Description: Inhibition of human ALK (1088 to 1409 residues) expressed in mammalian system at 1 uM by KINOMEscan assay
# [11] = Drug level in tumor of FAK expressing human CWR22 cells xenografted Nu/Nu mouse at 55 mg/kg, po administered as single dose measured at 12 hrs by LC-MS/MS analysis; type: ADME, organism-based, Neoplasm; conditions: read-out: Drug uptake
# Cytochrome P450 2C19 = Cytochrome P450 2C19 (Homo sapiens, UniProt P33261); test: Inhibition of CYP2C19 in human liver microsomes using S-mephenytoin as substrate in presence of NADPH by LC/MS/MS analysis; type: ADME
# NCI-H2228 = test: Antitumor activity against human NCI-H2228 cells expressing EML4-ALK xenografted in SCID-Beige mouse assessed as reduction in tumor volume at 55 mg/kg, po bid administered for 11 days measured during compound dosing; type: functional, organism-based
# [12] = Antitumor activity against human HCC827 cells expressing activated FAK xenografted in SCID-Beige mouse assessed as incidence of partial tumor regression at 55 mg/kg, po bid administered for 28 days; type: functional
# [13] = Oral bioavailability in cynomolgus monkey at 10 mg/kg by LC/MS/MS analysis; type: ADME, organism-based, Macaca fascicularis; conditions: in vivo
# [14] = Dose normalized AUC in CD-1 mouse at 10 mg/kg, po by LC/MS/MS analysis; type: ADME, organism-based; conditions: in vivo
# SUP-M2 [15] = test: Antitumor activity against human SUP-M2 cells expressing NPM-ALK xenografted in SCID-Beige mouse assessed as tumor ablation at 55 mg/kg, po qd administered for 12 days measured during compound dosing; type: functional, organism-based
# [16] = Cmax in Sprague-Dawley rat plasma at 30 mg/kg, po by LC/MS/MS analysis; type: ADME, organism-based; parameters: dose 30 mg/kg, route oral
# Cytochrome P450 1A2 = target: T1, Cytochrome P450 1A2 (Homo sapiens, UniProt P05177); test: Inhibition of CYP1A2 in human liver microsomes using phenacetin as substrate in presence of NADPH by LC/MS/MS analysis; type: ADME
# T1 sequence (P05177 whole entry): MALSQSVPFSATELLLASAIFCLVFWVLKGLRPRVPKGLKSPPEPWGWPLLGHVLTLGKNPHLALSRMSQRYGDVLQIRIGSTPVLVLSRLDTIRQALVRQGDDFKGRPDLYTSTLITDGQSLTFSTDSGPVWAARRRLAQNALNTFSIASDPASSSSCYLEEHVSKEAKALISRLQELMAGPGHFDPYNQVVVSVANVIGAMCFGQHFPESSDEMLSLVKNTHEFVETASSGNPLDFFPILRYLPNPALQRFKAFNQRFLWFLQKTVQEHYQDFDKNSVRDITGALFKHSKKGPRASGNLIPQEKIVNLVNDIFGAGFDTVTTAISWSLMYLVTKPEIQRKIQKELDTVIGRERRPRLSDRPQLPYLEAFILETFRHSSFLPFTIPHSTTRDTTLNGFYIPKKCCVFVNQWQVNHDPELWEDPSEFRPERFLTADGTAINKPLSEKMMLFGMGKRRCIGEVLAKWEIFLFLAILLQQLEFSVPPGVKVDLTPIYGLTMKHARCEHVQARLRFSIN
# [17] = Cmax in cynomolgus monkey at 10 mg/kg, po by LC/MS/MS analysis; type: ADME, organism-based, Macaca fascicularis; parameters: dose 10 mg/kg, route oral; conditions: in vivo
# [18] = AUC (0 to infinity) in Sprague-Dawley rat at 1 mg/kg, iv by LC/MS/MS analysis; type: ADME, organism-based; parameters: dose 1 mg/kg, time infinity, route intravenous; conditions: in vivo
# [19] = Half life in human liver microsomes by LC/MS/MS analysis; type: ADME
# [20] = Binding affinity to partial length human ALK 1151Tins mutant expressed in mammalian system by KINOMEscan assay
# HCC827 = test: Antitumor activity against human HCC827 cells expressing activated FAK xenografted in SCID-Beige mouse assessed as tumor growth inhibition at 30 mg/kg, po bid administered for 28 days; type: functional, organism-based
# Mus musculus = test: Inhibition of NPM-ALK phosphorylation in human SUP-M2 cells xenografted in mouse at 30 mg/kg, po administered as single dose measured upto 24 hrs; type: functional
# [21] = AUC (0 to infinity) in cynomolgus monkey at 10 mg/kg, po by LC/MS/MS analysis; type: ADME, organism-based, Macaca fascicularis; parameters: dose 10 mg/kg, route oral, time infinity; conditions: in vivo
# KARPAS-299 = test: Induction of apoptosis assessed as caspase 3/7 activation in human KARPAS299 expressing NPM-ALK; type: functional
# [22] = AUC (0 to infinity) in CD-1 mouse at 10 mg/kg, po by LC/MS/MS analysis; type: ADME, organism-based; parameters: dose 10 mg/kg, time infinity, route oral; conditions: in vivo
# [23] = Dose normalized AUC in cynomolgus monkey at 10 mg/kg, po by LC/MS/MS analysis; type: ADME, organism-based, Macaca fascicularis; conditions: in vivo
# [24] = Tmax in cynomolgus monkey at 10 mg/kg, po by LC/MS/MS analysis; type: ADME, organism-based, Macaca fascicularis; conditions: in vivo
# [25] = Antitumor activity against human CTG-0142 cells expressing activated FAK xenografted in mouse assessed as tumor growth inhibition at 55 mg/kg, po bid administered for 28 days measured during compound dosing; type: functional; conditions: CTG-0142, po, 672 h, read-out: TGI
# [26] = AUC (0 to infinity) in cynomolgus monkey at 1 mg/kg, iv by LC/MS/MS analysis; type: ADME, organism-based, Macaca fascicularis; parameters: dose 1 mg/kg, route intravenous, time infinity; conditions: in vivo
# IBC = test: Cytotoxicity against human IBC cells assessed as reduction in cell proliferation; type: functional, cell-based
# [27] = Drug level in tumor of FAK expressing human CWR22 cells xenografted Nu/Nu mouse at 55 mg/kg, po administered as single dose measured at 6 hrs by LC-MS/MS analysis; type: ADME, organism-based, Neoplasm; conditions: read-out: Drug uptake
# Cytochrome P450 2C19, sequence (P33261 whole entry): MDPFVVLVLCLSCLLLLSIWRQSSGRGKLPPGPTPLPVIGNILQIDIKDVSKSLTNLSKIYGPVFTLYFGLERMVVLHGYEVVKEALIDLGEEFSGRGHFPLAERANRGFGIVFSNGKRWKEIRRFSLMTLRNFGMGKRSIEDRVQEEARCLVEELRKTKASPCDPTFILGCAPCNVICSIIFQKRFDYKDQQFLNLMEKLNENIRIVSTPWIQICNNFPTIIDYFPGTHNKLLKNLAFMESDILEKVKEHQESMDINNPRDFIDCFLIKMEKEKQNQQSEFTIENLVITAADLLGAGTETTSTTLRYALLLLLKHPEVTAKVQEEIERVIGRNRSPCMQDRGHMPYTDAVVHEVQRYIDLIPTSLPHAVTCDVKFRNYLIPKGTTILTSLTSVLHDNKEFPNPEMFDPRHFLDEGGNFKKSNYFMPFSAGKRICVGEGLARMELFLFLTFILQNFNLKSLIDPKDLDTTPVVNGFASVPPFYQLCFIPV
# ALK tyrosine kinase receptor, sequence (Q9UM73 19-1620 limits assumed): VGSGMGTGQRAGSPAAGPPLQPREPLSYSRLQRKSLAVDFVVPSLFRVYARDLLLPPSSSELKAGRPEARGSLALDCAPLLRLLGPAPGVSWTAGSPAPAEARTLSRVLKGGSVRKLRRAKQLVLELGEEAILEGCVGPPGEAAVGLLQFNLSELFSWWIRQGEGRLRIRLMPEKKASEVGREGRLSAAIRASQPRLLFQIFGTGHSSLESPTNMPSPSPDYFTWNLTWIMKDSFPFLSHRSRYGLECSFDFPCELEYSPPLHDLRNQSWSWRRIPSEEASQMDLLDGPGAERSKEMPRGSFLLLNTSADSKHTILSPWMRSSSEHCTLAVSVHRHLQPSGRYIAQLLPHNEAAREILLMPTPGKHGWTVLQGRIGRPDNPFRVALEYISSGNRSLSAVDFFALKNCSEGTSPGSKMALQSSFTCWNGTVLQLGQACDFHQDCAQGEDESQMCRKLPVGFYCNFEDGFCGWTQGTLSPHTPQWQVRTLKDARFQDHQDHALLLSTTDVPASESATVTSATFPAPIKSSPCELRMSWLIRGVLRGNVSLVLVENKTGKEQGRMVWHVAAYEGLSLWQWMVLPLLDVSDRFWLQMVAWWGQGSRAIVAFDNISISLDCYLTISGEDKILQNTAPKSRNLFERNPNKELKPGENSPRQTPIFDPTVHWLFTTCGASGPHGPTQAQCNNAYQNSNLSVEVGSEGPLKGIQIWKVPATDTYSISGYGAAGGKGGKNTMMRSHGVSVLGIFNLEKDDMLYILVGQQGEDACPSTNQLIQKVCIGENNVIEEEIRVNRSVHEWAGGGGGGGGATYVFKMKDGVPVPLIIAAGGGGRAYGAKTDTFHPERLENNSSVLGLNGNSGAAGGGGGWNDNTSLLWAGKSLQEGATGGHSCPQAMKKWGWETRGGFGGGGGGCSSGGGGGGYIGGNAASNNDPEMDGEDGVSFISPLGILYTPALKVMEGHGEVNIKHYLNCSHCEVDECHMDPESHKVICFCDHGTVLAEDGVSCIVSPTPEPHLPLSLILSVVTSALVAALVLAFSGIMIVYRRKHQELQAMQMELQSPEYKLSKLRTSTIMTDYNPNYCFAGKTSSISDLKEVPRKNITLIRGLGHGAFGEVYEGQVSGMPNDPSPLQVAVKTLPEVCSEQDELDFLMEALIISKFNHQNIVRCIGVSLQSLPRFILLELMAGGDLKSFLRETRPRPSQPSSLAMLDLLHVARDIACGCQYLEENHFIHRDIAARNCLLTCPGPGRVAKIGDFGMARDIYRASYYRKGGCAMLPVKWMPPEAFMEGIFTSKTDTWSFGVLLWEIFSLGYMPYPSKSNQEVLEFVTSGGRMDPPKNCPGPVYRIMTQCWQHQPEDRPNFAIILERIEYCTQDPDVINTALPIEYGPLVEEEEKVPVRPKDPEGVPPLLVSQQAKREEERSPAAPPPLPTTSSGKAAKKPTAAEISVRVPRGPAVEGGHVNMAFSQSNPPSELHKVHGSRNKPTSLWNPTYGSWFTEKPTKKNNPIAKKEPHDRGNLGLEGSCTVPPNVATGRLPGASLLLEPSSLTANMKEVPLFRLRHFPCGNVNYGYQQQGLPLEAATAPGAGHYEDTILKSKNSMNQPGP
# Cytochrome P450 2D6, sequence (P10635 whole entry): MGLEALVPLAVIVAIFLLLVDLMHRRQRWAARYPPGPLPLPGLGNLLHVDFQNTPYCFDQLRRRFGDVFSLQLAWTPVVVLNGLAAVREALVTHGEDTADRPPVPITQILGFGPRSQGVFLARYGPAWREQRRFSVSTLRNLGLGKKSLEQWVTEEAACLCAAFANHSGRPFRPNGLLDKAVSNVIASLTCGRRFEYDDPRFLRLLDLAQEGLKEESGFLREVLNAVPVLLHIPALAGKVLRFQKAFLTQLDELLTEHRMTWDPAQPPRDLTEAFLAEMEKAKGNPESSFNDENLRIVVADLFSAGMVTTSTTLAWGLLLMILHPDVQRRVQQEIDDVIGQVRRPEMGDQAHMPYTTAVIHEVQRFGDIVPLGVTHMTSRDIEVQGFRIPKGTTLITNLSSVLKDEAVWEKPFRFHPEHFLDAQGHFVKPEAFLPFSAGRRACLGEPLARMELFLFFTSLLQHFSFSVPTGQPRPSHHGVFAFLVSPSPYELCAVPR
smiles,measurement,setting,value
CNC(=O)c1ccccc1Nc1nc(Nc2ccc3c(c2OC)CCC[C@H](N2CCN(CCO)CC2)C3)ncc1Cl [CEP-37440],bioavailability,[1],102%
same,clearance,[2],3 to 4 mL/min/kg
same,Tmax,[3],2 h
same,concentration at 12 h,[4],541 ng/mL
same,AUC(0-t) at 48 h,[5],61600 ng·h/mL
same,IC50,Cytochrome P450 2D6,> 5.6 µM
same,bioavailability,[6],42%
same,concentration at 6 h,[7],3360 ng/mL
same,concentration at 6 h,[8],6930 ng/g
same,Activity,SUP-M2 [9],Active
same,inhibition,[10],> 90%
same,concentration at 12 h,[11],3810 ng/g
same,IC50,Cytochrome P450 2C19,> 5.6 µM
same,Activity,NCI-H2228,Active
same,Activity,[12],60%
same,bioavailability,[13],50%
same,AUC/dose,[14],1643 ng·h/mL
same,Activity,SUP-M2 [15],Active
same,Cmax,[16],2120 ng/g
same,IC50,Cytochrome P450 1A2,> 5.6 µM
same,Cmax,[17],239 ng/mL
same,AUC(0-inf),[18],4000 ng·h/mL
same,half-life,[19],0.667 h
same,Kd,[20],0.0026 µM
same,TGI,HCC827,Active
same,inhibition in vivo at 30 mg/kg,Mus musculus,> 85%
same,AUC(0-inf),[21],2760 ng·h/mL
same,Activity,KARPAS-299,Active
same,AUC(0-inf),[22],16400 ng·h/mL
same,AUC/dose,[23],276 ng·h/mL
same,Tmax,[24],6 h
same,inhibition in vivo at 55 mg/kg,[25],75%
same,AUC(0-inf),[26],554 ng·h/mL
same,growth inhibition (GI),IBC,Dose-dependent effect
same,concentration at 6 h,[27],8680 ng/g
